Measurements published in publication PMC10287566, “Signaling-specific inhibition of the CB1 receptor for cannabis use disorder: phase 1 and phase 2a randomized trials” (Nature Medicine, 2023).

Experiments:
[1] = system: rats; test: THC-induced dopamine release in nucleus accumbens (microdialysis); format: in vivo; conditions: 15 µg kg^−1 oral
[2] = system: 85 receptors; test: Eurofins high-throughput binding screen; conditions: 10 µM
[3] = system: mice; test: Glucocorticoid (corticosterone) secretion in mice; format: in vivo; conditions: mice, highest dose tested 10 mg/kg
Method: Blood sampling was performed 2, 5, 8 and 24 h after dosing (n = 3 per sex per dose per sampling time). For blood sampling, mice were anaesthetized under isoflurane, and blood was collected by cardiac puncture. Blood was centrifuged, and plasma was taken and frozen at −80 °C until quantifications of corticosterone by GC–MS/MS.

[4] = system: healthy volunteers; test: Phase 1 multiple-ascending-dose (MAD) study, safety
Method: Four single oral dose levels (0.2, 0.6, 2 and 6 mg) were given in the morning on day 1 in the SAD study, and three oral doses (0.6, 2 and 6 mg) were given in the morning of day 1 to day 7 in the MAD study, to independent dose cohorts. […] Each dose cohort comprised eight volunteers (six (5/1) active and two (1/1) placebo per dose level).
In the MAD study, each randomized participant received a single oral dose per day on days 1 through 7. […] As an approximation, plasma PK concentrations and parameters were presented for all participants as if occurring on day 7.
Participants were admitted to the research clinic at midday before dosing (day −1). In the SAD study, they remained in-house until day 8 for PK and PD samples and safety assessments. In the MAD study, participants remained in-house until day 14 and returned to the research facility on an outpatient basis to have PK and safety assessments at 216 h and 264 h (day 16 and day 18) after their last dose (day 7). Safety monitoring (physical examinations, vital sign measurements, 12-lead ECGs, clinical safety laboratory tests and AE monitoring) were performed throughout the studies. Psychometrics tests (Bond & Lader VAS, Addiction Research Center Inventory (49-item short form) (ARCI-49) and Profile of Mood States 65 self-report items (POMS-65)) and the Columbia-Suicide Severity Rating Scale (C-SSRS) test were performed at baseline, before dose and at 4 h and 24 h after dose on day 1 and day 7 (MAD study, only) and C-SSRS only at 24 h.
All participants who had AEs, whether considered associated with the use of the investigational product or not, were monitored for as long as needed to determine resolution.

[5] = system: mice; test: Precipitated withdrawal in THC-dependent mice; format: in vivo; conditions: highest dose tested […]
Method: From day 1 to days 4–5, mice were injected i.p. with vehicle or THC (20 mg kg^−1) twice per day. On the last day of treatment, mice in the THC group received rimonabant or AEF0117. All other animals received the respective vehicle. […] For the measure of precipitated withdrawal, mice were placed in a novel home cage, and a video camera was positioned in front of each cage to record behavior. Scoring was performed for 1 min every 5-min period. Two withdrawal signs were analyzed—paw tremors and head shaking—because they are the most common signs of THC withdrawal observed in mice[14].

[6] = system: volunteers with CUD; test: Phase 2a study, safety; format: in vivo, human
Text: Data from the first dose level were reviewed by the Data Safety Monitoring Board before ascending to the next dose level.
On day 6 of each period, before discharge from the research center, participants had sitting blood pressure and pulse rate measurements, clinical laboratory tests (chemistry, hematology and urinalysis) and body weight taken. The study start date was 23 October 2018; primary completion date was 31 July 2020; and actual study completion date was 1 January 2021. After the second study phase, participants were contacted 28 d after discharge so that we could inquire about the occurrence of any serious AEs (including pregnancies) that may have occurred since leaving the research site.

COc1ccc(CO[C@H]2CC[C@@]3(C)C(=CC[C@H]4[C@@H]5CC[C@H](C(C)=O)[C@@]5(C)CC[C@@H]43)C2)cc1 [AEF0117, 3β-(4-methoxybenzyloxy)pregn-5-en-20-one]
THC-induced increase in Nac extracellular dopamine [1]: inhibited
binding activity at 85 receptors [2]: did not modify binding to any receptor
Overall effect: increase in glucocorticoid secretion [3]: No
Number of TEAEs ([4]; 0.6 mg/d 7 d): 7 E
Number of participants with a TEAE leading to discontinuation ([4]; 0.6 mg/d 7 d): 1 (16.7) n (%)
Number of participants with an SAE ([4]; 0.6 mg/d 7 d): 0 n (%)
Number of participants with at least one TEAE ([4]; 0.6 mg/d 7 d): 3 (50.0) n (%)
Participants with TEAE: Mild ([4]; 0.6 mg/d 7 d): 2 (33.3) n (%)
Participants with TEAE: Moderate ([4]; 0.6 mg/d 7 d): 1 (16.7) n (%)
Participants with TEAE: Not related ([4]; 0.6 mg/d 7 d): 1 (16.7) n (%)
Participants with TEAE: Related ([4]; 0.6 mg/d 7 d): 3 (50.0) n (%)
Participants with TEAE: Severe ([4]; 0.6 mg/d 7 d): 0 n (%)
TEAEs by SOC: Eye disorder ([4]; 0.6 mg/d 7 d): 0 n (%)
TEAEs by SOC: Gastrointestinal disorders ([4]; 0.6 mg/d 7 d): 0 n (%)
TEAEs by SOC: General disorders and administration site conditions ([4]; 0.6 mg/d 7 d): 1 (16.7) n (%)
TEAEs by SOC: Investigations ([4]; 0.6 mg/d 7 d): 0 n (%)
TEAEs by SOC: Metabolism and nutrition disorders ([4]; 0.6 mg/d 7 d): 1 (16.7) n (%)
TEAEs by SOC: Nervous system disorders ([4]; 0.6 mg/d 7 d): 2 (33.3) n (%)
TEAEs by SOC: Skin and subcutaneous tissue disorders ([4]; 0.6 mg/d 7 d): 1 (16.7) n (%)
Number of TEAEs ([4]; 2 mg/d 7 d): 3 E
Number of participants with a TEAE leading to discontinuation ([4]; 2 mg/d 7 d): 0 n (%)
Number of participants with an SAE ([4]; 2 mg/d 7 d): 0 n (%)
Number of participants with at least one TEAE ([4]; 2 mg/d 7 d): 2 (33.3) n (%)
Participants with TEAE: Mild ([4]; 2 mg/d 7 d): 2 (33.3) n (%)
Participants with TEAE: Moderate ([4]; 2 mg/d 7 d): 0 n (%)
Participants with TEAE: Not related ([4]; 2 mg/d 7 d): 1 (16.7) n (%)
Participants with TEAE: Severe ([4]; 2 mg/d 7 d): 0 n (%)
TEAEs by SOC: Eye disorder ([4]; 2 mg/d 7 d): 0 n (%)
TEAEs by SOC: Gastrointestinal disorders ([4]; 2 mg/d 7 d): 1 (16.7) n (%)
TEAEs by SOC: General disorders and administration site conditions ([4]; 2 mg/d 7 d): 0 n (%)
TEAEs by SOC: Investigations ([4]; 2 mg/d 7 d): 1 (16.7) n (%)
TEAEs by SOC: Metabolism and nutrition disorders ([4]; 2 mg/d 7 d): 0 n (%)
TEAEs by SOC: Nervous system disorders ([4]; 2 mg/d 7 d): 0 n (%)
TEAEs by SOC: Skin and subcutaneous tissue disorders ([4]; 2 mg/d 7 d): 0 n (%)
Number of TEAEs ([4]; 6 mg/d 7 d): 6 E
Number of participants with a TEAE leading to discontinuation ([4]; 6 mg/d 7 d): 0 n (%)
Number of participants with an SAE ([4]; 6 mg/d 7 d): 0 n (%)
Number of participants with at least one TEAE ([4]; 6 mg/d 7 d): 2 (33.3) n (%)
Participants with TEAE: Mild ([4]; 6 mg/d 7 d): 2 (33.3) n (%)
Participants with TEAE: Moderate ([4]; 6 mg/d 7 d): 1 (16.7) n (%)
Participants with TEAE: Not related ([4]; 6 mg/d 7 d): 2 (33.3) n (%)
Participants with TEAE: Related ([4]; 6 mg/d 7 d): 2 (33.3) n (%)
Participants with TEAE: Severe ([4]; 6 mg/d 7 d): 0 n (%)
TEAEs by SOC: Eye disorder ([4]; 6 mg/d 7 d): 1 (16.7) n (%)
TEAEs by SOC: Gastrointestinal disorders ([4]; 6 mg/d 7 d): 0 n (%)
TEAEs by SOC: General disorders and administration site conditions ([4]; 6 mg/d 7 d): 1 (16.7) n (%)
TEAEs by SOC: Investigations ([4]; 6 mg/d 7 d): 0 n (%)
TEAEs by SOC: Metabolism and nutrition disorders ([4]; 6 mg/d 7 d): 0 n (%)
TEAEs by SOC: Nervous system disorders ([4]; 6 mg/d 7 d): 2 (33.3) n (%)
TEAEs by SOC: Skin and subcutaneous tissue disorders ([4]; 6 mg/d 7 d): 1 (16.7) n (%)
Overall effect: precipitated withdrawal in THC-dependent mice [5]: No
Number of TEAEs ([6]; 0.06 mg/d 5 d): 9 E
Number of participants with a TEAE leading to discontinuation ([6]; 0.06 mg/d 5 d): 0 n (%)
Number of participants with an SAE ([6]; 0.06 mg/d 5 d): 0 n (%)
Number of participants with at least one TEAE ([6]; 0.06 mg/d 5 d): 6 (42.9) n (%)
Participants with TEAE: Mild ([6]; 0.06 mg/d 5 d): 6 (42.9) n (%)
Participants with TEAE: Moderate ([6]; 0.06 mg/d 5 d): 0 n (%)
Participants with TEAE: Not related ([6]; 0.06 mg/d 5 d): 2 (14.3) n (%)
Participants with TEAE: Related ([6]; 0.06 mg/d 5 d): 6 (42.9) n (%)
Participants with TEAE: Severe ([6]; 0.06 mg/d 5 d): 0 n (%)
TEAEs by SOC: Cardiac disorders ([6]; 0.06 mg/d 5 d): 1 (7.1) n (%)
TEAEs by SOC: Ear and labyrinth disorders ([6]; 0.06 mg/d 5 d): 0 n (%)
TEAEs by SOC: Gastrointestinal disorders ([6]; 0.06 mg/d 5 d): 0 n (%)
TEAEs by SOC: General disorders and administration site conditions ([6]; 0.06 mg/d 5 d): 1 (7.1) n (%)
TEAEs by SOC: Infections and infestations ([6]; 0.06 mg/d 5 d): 0 n (%)
TEAEs by SOC: Injury, poisoning and procedural complications ([6]; 0.06 mg/d 5 d): 0 n (%)
TEAEs by SOC: Investigations ([6]; 0.06 mg/d 5 d): 3 (21.4) n (%)
TEAEs by SOC: Musculoskeletal and connective tissue disorders ([6]; 0.06 mg/d 5 d): 0 n (%)
TEAEs by SOC: Nervous system disorders ([6]; 0.06 mg/d 5 d): 3 (21.4) n (%)
TEAEs by SOC: Psychiatric disorders ([6]; 0.06 mg/d 5 d): 0 n (%)
TEAEs by SOC: Renal and urinary disorders ([6]; 0.06 mg/d 5 d): 0 n (%)
TEAEs by SOC: Respiratory, thoracic and mediastinal disorders ([6]; 0.06 mg/d 5 d): 1 (7.1) n (%)
TEAEs by SOC: Skin and subcutaneous tissue disorders ([6]; 0.06 mg/d 5 d): 0 n (%)
Number of TEAEs ([6]; 1 mg/d 5 d): 24 E
Number of participants with a TEAE leading to discontinuation ([6]; 1 mg/d 5 d): 1 (6.7) n (%)
Number of participants with an SAE ([6]; 1 mg/d 5 d): 0 n (%)
Number of participants with at least one TEAE ([6]; 1 mg/d 5 d): 8 (53.3) n (%)
Participants with TEAE: Mild ([6]; 1 mg/d 5 d): 8 (53.3) n (%)
Participants with TEAE: Moderate ([6]; 1 mg/d 5 d): 1 (6.7) n (%)
Participants with TEAE: Not related ([6]; 1 mg/d 5 d): 1 (6.7) n (%)
Participants with TEAE: Related ([6]; 1 mg/d 5 d): 8 (53.3) n (%)
Participants with TEAE: Severe ([6]; 1 mg/d 5 d): 1 (6.7) n (%)
TEAEs by SOC: Cardiac disorders ([6]; 1 mg/d 5 d): 0 n (%)
TEAEs by SOC: Ear and labyrinth disorders ([6]; 1 mg/d 5 d): 0 n (%)
TEAEs by SOC: Gastrointestinal disorders ([6]; 1 mg/d 5 d): 4 (26.7) n (%)
TEAEs by SOC: General disorders and administration site conditions ([6]; 1 mg/d 5 d): 0 n (%)
TEAEs by SOC: Infections and infestations ([6]; 1 mg/d 5 d): 0 n (%)
TEAEs by SOC: Injury, poisoning and procedural complications ([6]; 1 mg/d 5 d): 2 (13.3) n (%)
TEAEs by SOC: Investigations ([6]; 1 mg/d 5 d): 2 (13.3) n (%)
TEAEs by SOC: Musculoskeletal and connective tissue disorders ([6]; 1 mg/d 5 d): 2 (13.3) n (%)
TEAEs by SOC: Nervous system disorders ([6]; 1 mg/d 5 d): 3 (20.0) n (%)
TEAEs by SOC: Psychiatric disorders ([6]; 1 mg/d 5 d): 2 (13.3) n (%)
TEAEs by SOC: Renal and urinary disorders ([6]; 1 mg/d 5 d): 0 n (%)
TEAEs by SOC: Respiratory, thoracic and mediastinal disorders ([6]; 1 mg/d 5 d): 0 n (%)
TEAEs by SOC: Skin and subcutaneous tissue disorders ([6]; 1 mg/d 5 d): 1 (6.7) n (%)
